Experimental data as given in PubChem BioAssay (NCI).
“And” between values parts separate entries of the source, which are not always exact repeats. Equal values may be shown once.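 The compound was tested at five concentrations on cells cultured in 96-well plates, with a 48-hour exposure period. The concentration for 50% growth inhibition is given as GI50. TGI marks complete inhibition of growth.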

Assays:
Assay in all cases: DTP human tumour cell line panel, 48 h
A498 renal = tested on: A498 renal
HCT-15 colon = tested on: HCT-15 colon
HOP-62 NSCLC = tested on: HOP-62 NSCLC
IGROV1 ovarian = tested on: IGROV1 ovarian
LOX IMVI melanoma = tested on: LOX IMVI melanoma
NCI-H460 lung = tested on: NCI-H460 lung
OVCAR-5 ovarian = tested on: OVCAR-5 ovarian
SK-OV-3 ovarian = tested on: SK-OV-3 ovarian
SNB-75 CNS = tested on: SNB-75 CNS
UACC-62 melanoma = tested on: UACC-62 melanoma

SMILES | TGI (A498 renal) [µM] | TGI (HCT-15 colon) | TGI (HOP-62 NSCLC) | TGI (IGROV1 ovarian) | TGI (LOX IMVI melanoma) | TGI (NCI-H460 lung) [µM] | TGI (OVCAR-5 ovarian) [µM] | TGI (SK-OV-3 ovarian) [µM] | TGI (SNB-75 CNS) | TGI (UACC-62 melanoma) [µM] | GI50 (A498 renal) [µM] | GI50 (HCT-15 colon) [µM] | GI50 (HOP-62 NSCLC) [µM] | GI50 (IGROV1 ovarian) [µM] | GI50 (LOX IMVI melanoma) [µM] | GI50 (NCI-H460 lung) [µM] | GI50 (OVCAR-5 ovarian) [µM] | GI50 (SK-OV-3 ovarian) [µM] | GI50 (SNB-75 CNS) [µM] | GI50 (UACC-62 melanoma) [µM]
O=C1CCC(c2ccccc2)(c2ccccc2)CC1 | > 100 | > 100 µM | > 100 µM | > 100 µM | > 100 µM | > 100 | > 100 | > 100 | > 100 µM | > 100 | – | – | – | – | – | – | – | – | – | –
CCNC1=CC(=O)c2ncccc2C1=O | 2.87 | 3.22 µM | 2.04 µM | 24.5 µM | 3.22 µM | 2 | 3.47 | 19.8 | 2.45 µM | 2.3 | 1.24 | 0.999 | 0.583 | 7.91 | 1 | 0.439 | 1.79 | 6.92 | 1.19 | 1.06
Cn1cc(/C=C2\C(=O)Nc3cccnc32)c2ccccc21 | > 25 | > 25 µM | > 25 µM | > 25 µM | > 25 µM | > 25 | > 25 | > 25 | > 25 µM | > 25 | 4.73 | > 17.3 | > 25 | 6.82 | 7.77 | 16.4 | > 25 | 17 | > 19.6 | 8.82
C1CCN2CC34CC(CC5CCCN(C6CCCC3N6)C54)C2C1 (stereo unspecified) | > 100 | > 100 µM | > 100 µM | > 100 µM | > 100 µM | > 100 | > 100 | > 100 | > 100 µM | > 100 | – | – | – | – | – | – | – | – | – | –
NC(=O)c1ccc(NC(=O)c2oc3ccccc3c2-c2cnn(-c3ccccc3)c2)cc1 | > 100 | – | 46.6 µM | – | > 100 µM | > 100 | > 100 | > 100 | 8.31 µM | – | 60.8 | – | 3.33 | – | > 100 | > 100 | > 100 | > 100 | 1.89 | –
COS(=O)CCOC(=O)c1ccccc1SSc1ccccc1C(=O)OCCS(=O)OC (stereo unspecified) | > 100 | 85.9 µM | > 100 µM | > 100 µM | 61.6 µM | > 100 | > 100 | > 100 | 70.2 µM | 51.5 | – | – | – | – | – | – | – | – | – | –
C[Si](C)(C)[C@@]1([Se]c2ccccc2)CC[C@@H]1C(=O)c1ccccc1 | > 100 | > 100 µM | > 100 µM | > 100 µM | > 100 µM | > 100 | > 100 | > 100 | > 100 µM | > 100 | – | – | – | – | – | – | – | – | – | –
CC(C)(C)c1ccc(C(O)(c2ccc(C(C)(C)C)cc2)c2ccc(C(C)(C)C)cc2)cc1 | > 100 | > 100 µM | > 100 µM | > 100 µM | > 100 µM | > 100 | > 100 | > 100 | > 100 µM | > 100 | – | – | – | – | – | – | – | – | – | –
COc1ccccc1OCC(COC(=O)Nc1ccc(C)cc1)OC(=O)Nc1ccc(C)cc1 (stereo unspecified) | > 100 | 29.9 µM | > 100 µM | 60.1 µM | 30.2 µM | 30.3 | 47.4 | 47.8 | 69.1 µM | 30.6 | – | – | – | – | – | – | – | – | – | –
C[C@H]1CC(=O)[C@@]2(O)C#C/C=C\C#C[C@@H]3Nc4c(cc(O)c5c4C(=O)c4ccccc4C5=O)[C@]24O[C@]314 | 0.217 | 0.836 µM and 0.148 µM | 0.00698 µM and 0.00625 µM | 0.452 µM and 0.7 µM | 0.18 µM and 0.326 µM | – | 0.679 | 0.0954 | 0.0804 µM and 0.0719 µM | 0.133 | – | 0.00722 | 0.0025 | 0.0025 | 0.0025 | 0.0025 | – | – | 0.0062 | –
Fc1cc(Nc2ccc3c(OCCCN4CCOCC4)cccc3n2)ccc1Cl | 6.73 | 3.06 µM | 3.43 µM | 9.32 µM | 3.17 µM | – | 4.88 | 4.72 | 6.2 µM | 5.61 | 2.42 | 1.4 | 1.71 | 3.19 | 1.71 | – | 2.13 | 2.24 | 1.86 | 2.32
COc1cc(C(=O)c2c(-c3ccccc3)oc3ccccc23)cc(OC)c1O | 5.76 | 15.5 µM | 23.4 µM | 18.7 µM | 21.6 µM | 10.7 | 32.6 | 52.1 | 2.22 µM | 16 | 2.09 | 0.667 | 7.3 | 2.6 | 4.33 | 2.22 | 4.64 | 6.24 | 0.231 | 0.975
Cc1[nH]nc(C(=O)N/N=C/c2cccs2)c1N=NN(C)C | 91 | 38.5 µM | 50.1 µM | 31.1 µM | 34.7 µM | 34.7 | > 100 | 43.7 | 8.85 µM | 51.7 | – | – | – | – | – | – | – | – | – | –
Cc1cc(I)cc(CN(C)CCCCN2CCCC2)c1O | 30.2 | 37.3 µM | 33.9 µM | 59.1 µM | 30.8 µM | 45.9 | > 100 | 67.8 | 36.9 µM | 15.7 | 13.4 | 15.6 | 16.4 | 24.8 | 15.5 | 17.3 | 27.6 | 21.6 | 16.5 | 4.19
O=C(/C=C/c1cccs1)Nc1ncc(Cc2ccccc2F)s1 | 0.899 | > 100 µM | > 100 µM | > 100 µM | > 100 µM | > 100 | > 100 | > 100 | 0.651 µM | > 100 | 0.175 | 0.123 | 0.407 | 0.541 | 0.18 | 0.335 | 0.506 | 0.477 | 0.154 | 0.207
Clc1cccc(C2SCc3nc4ccccc4n32)c1Cl (stereo unspecified) | 29.2 | 36.5 µM | 32 µM | 33.6 µM | – | 34.6 | 27.1 | 34.9 | 18.6 µM | 34.3 | – | – | – | – | – | – | – | – | – | –
